Some results are limits rather than exact numbers.

For one assay, the target named is T1, human MGL from HeLa cells (Homo sapiens, UniProt Q99685).
T1 construct: combining endogenously expressed MGL from HeLa cells with test compounds; endogenous in cells; host or cells: HeLa cells / cell homogenates
T1 sequence (Q99685 1-303): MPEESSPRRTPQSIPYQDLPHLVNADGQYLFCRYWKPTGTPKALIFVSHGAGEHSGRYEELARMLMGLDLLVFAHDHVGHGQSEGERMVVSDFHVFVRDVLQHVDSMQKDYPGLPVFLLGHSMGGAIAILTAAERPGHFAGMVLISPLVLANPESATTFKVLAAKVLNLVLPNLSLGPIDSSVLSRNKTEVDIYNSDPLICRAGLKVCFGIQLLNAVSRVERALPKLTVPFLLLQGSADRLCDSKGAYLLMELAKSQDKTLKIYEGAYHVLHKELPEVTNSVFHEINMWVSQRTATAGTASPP
In words: In vitro MGL activity assay: [glycerol-1,3-3H]-oleyl glycerol cleavage by MGL from HeLa cells. Format: biochemical. The note with it: 300 nM [Glycerol-1,3-3H]-oleyl glycerol, one hour. An excerpt: MGL is the predominant hydrolase in HeLa cells/cell homogenates.
In general, IC50 refers to the concentration needed to halve the response being measured. Low values mean greater potency, high ones weaker potency. `C[C@H]1c2nn(C)c(-c3cc(F)c(F)c(F)c3)c2CCN1C(=O)c1ccc2c(c1)COCC2` [Example 577, [(7S)-2,7-Dimethyl-3-(3,4,5-trifluorophenyl)-5,7-dihydro-4H-pyrazolo[3,4-c]pyridin-6-yl]-isochroman-7-yl-methanone]: the midpoint of inhibition, the IC50, lay at 32.2 nM.
Regarding `C[C@H]1c2nn(C)c(-c3cc(F)c(F)c(F)c3)c2CCN1C(=O)c1cnn2c1NCCC2C(F)(F)F` (stereo partly drawn) [Example 558, ((S)-2,7-Dimethyl-3-(3,4,5-trifluorophenyl)-4,5-dihydro-2H-pyrazolo[3,4-c]pyridin-6 (7H)-yl)(7-(trifluoromethyl)-4,5,6,7-tetrahydropyrazolo[1,5-a]pyrimidin-3-yl)methanone], the IC50 was found to be 1800 nM.
`Cc1cnc2c(C(=O)N3CCc4c(nn(C)c4-c4cc(F)c(F)c(F)c4)[C@@H]3C)cccc2n1` [Example 474, [(7S)-2,7-Dimethyl-3-(3,4,5-trifluorophenyl)-5,7-dihydro-4H-pyrazolo[3,4-c]pyridin-6-yl]-(2-methylquinoxalin-5-yl)methanone] had an IC50 of 85.3 nM.
Same read-out and setting: the figure for `C[C@H]1c2nn(C)c(-c3cc(F)c(F)c(F)c3)c2CCN1C(=O)c1ccc2nc(O)ccc2c1` [Example 517, [(7S)-2,7-Dimethyl-3-(3,4,5-trifluorophenyl)-5,7-dihydro-4H-pyrazolo[3,4-c]pyridin-6-yl]-(2-hydroxy-6-quinolyl)methanone] is 80.7 nM; for `Cc1nc2ccc(F)cn2c1C(=O)N1CCc2c(nn(C)c2-c2cc(F)c(F)c(F)c2)[C@@H]1C` [Example 407, [(7S)-2,7-Dimethyl-3-(3,4,5-trifluorophenyl)-5,7-dihydro-4H-pyrazolo[3,4-c]pyridin-6-yl]-(6-fluoro-2-methyl-imidazo[1,2-a]pyridin-3-yl)methanone] it is 21.3 nM.
As to `COc1cccc2c(C(=O)N3CCc4c(nn(C)c4-c4cc(F)c(F)c(F)c4)[C@@H]3C)cnn12` [Example 387, [(7S)-2,7-Dimethyl-3-(3,4,5-trifluorophenyl)-5,7-dihydro-4H-pyrazolo[3,4-c]pyridin-6-yl]-(7-methoxypyrazolo[1,5-a]pyridin-3-yl)methanone], half-maximal inhibition (IC50) required 26.4 nM.
The same measure, in the same setting: the figure for `Cc1cccc2c(C(=O)N3CCc4c(nn(C)c4-c4cc(F)c(F)c(F)c4)[C@@H]3C)cnn12` [Example 386, [(7S)-2,7-Dimethyl-3-(3,4,5-trifluorophenyl)-5,7-dihydro-4H-pyrazolo[3,4-c]pyridin-6-yl]-(7-methylpyrazolo[1,5-a]pyridin-3-yl)methanone] is 11.7 nM; for `C[C@H]1c2nn(C)c(-c3cc(F)c(F)c(F)c3)c2CCN1C(=O)c1cc2n(n1)CCCO2` [Example 553, 6,7-Dihydro-5H-pyrazolo[5,1-b][1,3]oxazin-2-yl-[(7S)-2,7-dimethyl-3-(3,4,5-trifluorophenyl)-5,7-dihydro-4H-pyrazolo[3,4-c]pyridin-6-yl]methanone] it is 285 nM.
Take `Cc1nn(C)c(C)c1C(=O)N1CCc2c(nn(C)c2-c2cc(F)c(F)c(F)c2)[C@@H]1C` [Example 344, [(7S)-2,7-Dimethyl-3-(3,4,5-trifluorophenyl)-5,7-dihydro-4H-pyrazolo[3,4-c]pyridin-6-yl]-(1,3,5-trimethylpyrazol-4-yl)methanone]: the IC50 was found to be 58.1 nM.
Still for that read-out and setting: the figure for `C[C@H]1c2nn(C)c(-c3cc(F)c(F)c(F)c3)c2CCN1C(=O)c1ccc2nnc(C(F)F)n2c1` [Example 440, [3-(Difluoromethyl)-[1,2,4]triazolo[4,3-a]pyridin-6-yl]-[(7S)-2,7-dimethyl-3-(3,4,5-trifluorophenyl)-5,7-dihydro-4H-pyrazolo[3,4-c]pyridin-6-yl]methanone] is 865 nM; for `C[C@H]1c2nn(C)c(-c3cc(F)c(F)c(F)c3)c2CCN1C(=O)c1ncnc2nc[nH]c12` [Example 470, [(7S)-2,7-Dimethyl-3-(3,4,5-trifluorophenyl)-5,7-dihydro-4H-pyrazolo[3,4-c]pyridin-6-yl]-(7H-purin-6-yl)methanone] it is 3350 nM.
With `C[C@H]1c2nn(C)c(-c3cc(F)c(F)c(F)c3)c2CCN1C(=O)c1cccc2cnccc12` [Example 543, [(7S)-2,7-Dimethyl-3-(3,4,5-trifluorophenyl)-5,7-dihydro-4H-pyrazolo[3,4-c]pyridin-6-yl]-(5-isoquinolyl)methanone], it took 4.92 nM to reach half-maximal inhibition (IC50).
Same read-out and setting: the figure for `C[C@H]1c2nn(C)c(-c3cc(F)c(F)c(F)c3)c2CCN1C(=O)c1cccc2oc(=O)[nH]c12` [Example 584, 4-[(7S)-2,7-Dimethyl-3-(3,4,5-trifluorophenyl)-5,7-dihydro-4H-pyrazolo[3,4-c]pyridine-6-carbonyl]-3H-1,3-benzoxazol-2-one] is 300 nM; for `C[C@H]1c2nn(C)c(-c3cccc4ccoc34)c2CCN1C(=O)c1ccc2ncccc2c1` [Example 534, [(7S)-3-(Benzofuran-7-yl)-2,7-dimethyl-5,7-dihydro-4H-pyrazolo[3,4-c]pyridin-6-yl]-(6-quinolyl)methanone] it is 25.1 nM.

The assay is the same for the next values; noted with them: 300 nM [Glycerol-1,3-3H]-oleyl glycerol, one hour incubation.
`C[C@@H]1c2nn(C)c(-c3cc(F)cc(Cl)c3)c2CCN1C(=O)c1ccc2nccnc2c1` [Example 182, (R)-(3-(3-Chloro-5-fluorophenyl)-2,7-dimethyl-2,4,5,7-tetrahydro-6H-pyrazolo[3,4-c]pyridin-6-yl)(quinoxalin-6-yl)methanone]: the IC50 is over 10000 nM.
The same measure, in the same setting: the figure for `C[C@H]1c2nn(C)c(-c3cc(F)c(F)c(F)c3)c2CCN1C(=O)c1cccc2cnn(C)c12` [Example 209, (S)-(2,7-Dimethyl-3-(3,4,5-trifluorophenyl)-2,4,5,7-tetrahydro-6H-pyrazolo[3,4-c]pyridin-6-yl)(1-methyl-1H-indazol-7-yl)methanone] is 11.1 nM; for `CCn1nc2c(c1-c1ccccc1)CCN(C(=O)c1ccc3ncccc3c1)C2` [Example 91, (2-Ethyl-3-phenyl-2,4,5,7-tetrahydro-6H-pyrazolo[3,4-c]pyridin-6-yl)(quinolin-6-yl)methanone] it is 781 nM; for `C[C@@H]1c2nn(C)c(-c3cc(F)cc(F)c3)c2CCN1C(=O)c1cnc2ccoc2c1` [Example 154, (R)-(3-(3,5-Difluorophenyl)-2,7-dimethyl-2,4,5,7-tetrahydro-6H-pyrazolo[3,4-c]pyridin-6-yl)(furo[3,2-b]pyridin-6-yl)methanone] it is 6550 nM.
For the molecule `C[C@H]1c2nn(C)c(-c3cc(F)cc(F)c3)c2CCN1C(=O)c1cc(OCCF)ccc1Cl` [Example 146, (2-Chloro-5-(2-fluoroethoxy)phenyl)(3-(3,5-difluorophenyl)-2,7-dimethyl-2,4,5,7-tetrahydro-6H-pyrazolo[3,4-c]pyridin-6-yl)methanone], half-maximal inhibition (IC50) was put at 3.73 nM.
Molecule `Cc1cc(C(=O)N2CCc3c(nn(C)c3-c3cc(F)c(F)c(F)c3)[C@@H]2C)c2cccc(F)c2n1` [Example 241, (S)-(2,7-Dimethyl-3-(3,4,5-trifluorophenyl)-2,4,5,7-tetrahydro-6H-pyrazolo[3,4-c]pyridin-6-yl)(8-fluoro-2-methylquinolin-4-yl)methanone] displayed an IC50 of 6.56 nM.
`C[C@H]1c2nn(C)c(-c3cc(F)c(F)c(F)c3)c2CCN1C(=O)c1cncc2cccnc12` [Example 246, (S)-(2,7-Dimethyl-3-(3,4,5-trifluorophenyl)-2,4,5,7-tetrahydro-6H-pyrazolo[3,4-c]pyridin-6-yl)(1,6-naphthyridin-8-yl)methanone] came in with an IC50 of 20 nM.
`COCc1cncc(C(=O)N2CCc3c(nn(C)c3-c3cccc(Cl)c3)[C@@H]2C)c1` [Example 120, (S)-(3-(3-Chlorophenyl)-2,7-dimethyl-2,4,5,7-tetrahydro-6H-pyrazolo[3,4-c]pyridin-6-yl)(5-(methoxymethyl)pyridin-3-yl)methanone] yielded an IC50 of 174 nM.
Still for that read-out and setting: the figure for `CC1c2nn(C)c(-c3cc(F)cc(F)c3)c2CCN1C(=O)c1ncn(-c2ccccc2)n1` (stereo not shown) [Example 148, (3-(3,5-Difluorophenyl)-2,7-dimethyl-2,4,5,7-tetrahydro-6H-pyrazolo[3,4-c]pyridin-6-yl)(1-phenyl-1H-1,2,4-triazol-3-yl)methanone] is 67.1 nM.
On the same count and under the same terms, the figure for `CCc1nc(C(=O)N2CCc3c(nn(C)c3-c3cc(F)c(F)c(F)c3)[C@@H]2C)nn1-c1ccccc1` [Example 202, (S)-(2,7-Dimethyl-3-(3,4,5-trifluorophenyl)-2,4,5,7-tetrahydro-6H-pyrazolo[3,4-c]pyridin-6-yl)(5-ethyl-1-phenyl-1H-1,2,4-triazol-3-yl)methanone] is 7.39 nM.
`Cc1nc(C(=O)N2CCc3c(nn(C)c3-c3cc(F)c(F)c(F)c3)[C@@H]2C)nn1-c1ccccc1` [Example 321, [(7S)-2,7-Dimethyl-3-(3,4,5-trifluorophenyl)-5,7-dihydro-4H-pyrazolo[3,4-c]pyridin-6-yl]-(5-methyl-1-phenyl-1,2,4-triazol-3-yl)methanone]: the midpoint of inhibition, the IC50, lay at 14.8 nM.
As to `Cn1nc2c(c1-c1ccccc1)CCN(C(=O)c1c[nH]c3ccccc13)C2` [Example 44, (1H-Indol-3-yl)(2-methyl-3-phenyl-2,4,5,7-tetrahydro-6H-pyrazolo[3,4-c]pyridin-6-yl)methanone], the half-maximal inhibitory concentration (IC50) was 319 nM.
`Cn1nc2c(c1-c1ccccc1)CCN(C(=O)c1ccc3ocnc3c1)C2` [Example 58, Benzo[d]oxazol-5-yl(2-methyl-3-phenyl-2,4,5,7-tetrahydro-6H-pyrazolo[3,4-c]pyridin-6-yl)methanone] displayed an IC50 of 4180 nM.
The same measure, in the same setting: the figure for `C[C@H]1c2nn(C)c(-c3cc(F)c(F)c(F)c3)c2CCN1C(=O)c1ccccc1-n1cncn1` [Example 279, [(7S)-2,7-Dimethyl-3-(3,4,5-trifluorophenyl)-5,7-dihydro-4H-pyrazolo[3,4-c]pyridin-6-yl]-[2-(1,2,4-triazol-1-yl)phenyl]methanone] is 7.34 nM.

Source of the values: US11820766B2, “Monoacylglycerol lipase modulators” (Janssen Pharmaceutica NV, priority 2018, dated 2023).
